Data as given in US9403801B2 (Calitor Sciences, LLC, priority 2014, dated 2016).

Legend:
[1] = Pharmacokinetics after intravenous and oral administration in rats; assay type: in vivo; conditions: for Clearance (CL) after iv dosing / AUC(0-t) / half-life / Vd: dose 1 mg/kg (Ex. 27: 0.72 mg/kg), iv dosing; for F: oral bioavailability; for AUC(0-t) / half-life / Vd: rat, plasma; for Vd: read-out: Vss
Method: The LC/MS/MS system used in the analysis consists of an Agilent 1200 Series vacuum degasser, binary pump, well-plate autosampler, thermostatted column compartment, the Agilent G6430 Triple Quadrupole Mass Spectrometer with an electrosprayionization (ESI) source. Quantitative analysis was carried out using MRM mode. The parameters for MRM transitions are in the Table A.
An Agilent XDB-C18, 2.1×30 mm, 3.5 μM column was used for the analysis. 5 μL of the samples were injected. Analysis condition: The mobile phase was 0.1% formic acid in water (A) and 0.1% formic acid in methanol (B). The flow rate was 0.4 mL/min. And the gradient of Mobile phase was in the Table B.
Alternatively, an Agilent 6330 series LC/MS/MS spectrometer equipped with G1312A binary pumps, a G1367A autosampler and a G1314C UV detector were used in the analysis. An ESI source was used on the LC/MS/MS spectrometer. The analysis was done in positive ion mode as appropriate and the MRM transition for each analyte was optimized using standard solution. A Capcell MP-C18 100×4.6 mm I.D., […] column (Phenomenex, Torrance, Calif., USA) was used during the analysis. The mobile phase was 5 mM ammonia acetate, 0.1% MeOH in water (A): 5 mM ammonia acetate, 0.1% MeOH in acetonitrile (B) (70:30, v/v). The flow rate was 0.6 mL/min. Column was maintained at ambient temperature. 20 μL of the samples were injected.
The compounds disclosed herein are assessed in pharmacokinetic studies in mice, rats, dogs or monkeys. The compounds are administered as a water solution, 2% HPMC+1% TWEEN®80 in water solution, 5% DMSO+5% solution in saline, 4% MC suspension or capsule. For the intravenous administration, the animals are generally given at 1 or 2 mg/kg dose. For the oral (p.o.) dosing, mice and rats are generally given 5 or 10 mg/kg dose, and dogs and monkeys are generally given 10 mg/kg dose. The blood samples (0.3 mL) are drawn at 0.25, 0.5, 1.0, 2.0, 3.0, 4.0, 6.0, 8.0, 12 and 24 h time points or 0.083, 0.25, 0.5, 1.0, 2.0, 4.0, 6.0, 8.0 and 24 h time points and centrifuged at 3,000 or 4000 rpm for 2 to 10 min. The plasma solutions are collected, and stored at −20° C. or −70° C. until analyzed by LC/MS/MS as described above.

JAK1 (h) = JAK1 (h) (Homo sapiens (Human), UniProt P23458); assay: JAK1 kinase assay (33P-ATP filter binding, Millipore); assay type: biochemical
JAK1 (h), sequence (P23458 whole entry): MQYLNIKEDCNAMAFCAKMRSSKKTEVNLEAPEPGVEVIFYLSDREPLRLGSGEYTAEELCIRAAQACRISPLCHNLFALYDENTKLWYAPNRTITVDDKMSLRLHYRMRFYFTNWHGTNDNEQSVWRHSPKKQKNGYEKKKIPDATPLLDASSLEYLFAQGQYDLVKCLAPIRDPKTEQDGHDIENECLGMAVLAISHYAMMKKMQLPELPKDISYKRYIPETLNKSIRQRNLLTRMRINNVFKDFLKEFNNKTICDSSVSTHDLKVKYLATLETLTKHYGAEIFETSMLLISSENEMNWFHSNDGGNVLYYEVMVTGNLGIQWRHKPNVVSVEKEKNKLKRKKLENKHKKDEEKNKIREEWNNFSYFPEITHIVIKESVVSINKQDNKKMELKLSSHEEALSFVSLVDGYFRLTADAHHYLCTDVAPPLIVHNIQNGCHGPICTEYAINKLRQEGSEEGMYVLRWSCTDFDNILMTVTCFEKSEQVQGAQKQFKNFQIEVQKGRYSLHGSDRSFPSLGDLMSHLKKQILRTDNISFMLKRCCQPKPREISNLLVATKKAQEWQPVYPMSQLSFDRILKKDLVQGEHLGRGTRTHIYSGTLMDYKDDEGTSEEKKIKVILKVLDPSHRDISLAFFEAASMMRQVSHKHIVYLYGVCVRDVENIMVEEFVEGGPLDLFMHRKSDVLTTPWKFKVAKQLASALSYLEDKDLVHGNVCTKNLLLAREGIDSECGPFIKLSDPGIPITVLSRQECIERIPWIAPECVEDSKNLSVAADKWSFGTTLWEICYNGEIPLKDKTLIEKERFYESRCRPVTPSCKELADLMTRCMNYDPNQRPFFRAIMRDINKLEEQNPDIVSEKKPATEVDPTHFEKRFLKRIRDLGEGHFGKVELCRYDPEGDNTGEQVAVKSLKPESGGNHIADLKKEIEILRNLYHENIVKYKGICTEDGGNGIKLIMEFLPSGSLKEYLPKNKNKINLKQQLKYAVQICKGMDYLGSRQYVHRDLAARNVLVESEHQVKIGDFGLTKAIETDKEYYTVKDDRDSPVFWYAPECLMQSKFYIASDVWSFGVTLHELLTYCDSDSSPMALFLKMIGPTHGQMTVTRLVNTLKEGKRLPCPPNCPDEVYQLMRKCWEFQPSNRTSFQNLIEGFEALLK
Method: Kinase assays can be performed by measurement of incorporation of γ-^33P ATP into immobilized myelin basic protein (MBP). High binding white 384 well plates (Greiner) are coated with MBP (Sigma #M−1891) by incubation of 60 μL/well of 20 μg/mL MBP in Tris-buffered saline (TBS; 50 mM Tris pH 8.0, 138 mM NaCl, 2.7 mM KCl) for 24 h at 4° C. Plates are washed 3× with 100 μL TBS. Kinase reactions are carried out in a total volume of 34 μL in kinase buffer (5 mM Hepes pH 7.6, 15 mM NaCl, 0.01% bovine gamma globulin (Sigma #I-5506), 10 mM MgCl2, 1 mM DTT, 0.02% TritonX-100). Compound dilutions are performed in DMSO and added to assay wells to a final DMSO concentration of 1%. Each data point is measured in duplicate, and at least two duplicate assays are performed for each individual compound determination. Enzyme is added to final concentrations of 10 nM or 20 nM, for example. A mixture of unlabeled ATP and γ-^33P ATP is added to start the reaction (2×10^6 cpm of γ-^33P ATP per well (3000 Ci/mmole) and 10 μM unlabeled ATP, typically. The reactions are carried out for 1 h at room temperature with shaking. Plates are washed 7× with TBS, followed by the addition of 50 μL/well scintillation fluid (Wallac). Plates are read using a Wallac Trilux counter. This is only one format of such assays; various other formats are possible, as known to one skilled in the art.
The above assay procedure can be used to determine the IC50 for inhibition and/or the inhibition constant, Ki. The IC50 is defined as the concentration of compound required to reduce the enzyme activity by 50% under the condition of the assay. The IC50 value is estimated by preparing a 10 point curve using a 1/2 log dilution series (for example, a typical curve may be prepared using the following compound concentrations: 3 μM, 1 μM, 0.3 μM, 0.1 μM, 0.03 μM, 0.01 μM, 0.003 μM, 0.001 μM, 0.0003 μM and 0 μM).
The kinase assays described herein were performed at Millipore UK Ltd, Dundee Technology Park, Dundee DD2 1SW, UK.

[2] = Compound stability in rat liver microsomes; assay type: in vitro ADME; conditions: for half-life at 5 μM: compound 5 μM, NADPH 1.0 mM, 37° C.; for CLint scaled at 5 μM: in vivo CLint extrapolated
Method: (§1) Human or rat liver microsomes incubations were conducted in duplicate in polypropylene tubes. The typical incubation mixtures consisted of human or rat liver microsomes (0.5 mg protein/mL), compounds of interest (5 μM) and NADPH (1.0 mM) in a total volume of 200 μL potassium phosphate buffer (PBS, 100 mM, pH 7.4). Compounds were dissolved in DMSO and diluted with PBS such that the final concentration of DMSO was 0.05%. The enzymatic reactions were commenced with the addition of protein after a 3-min preincubation and incubated in a water bath open to the air at 37° C. Reactions were terminated at various time points (0, 5, 10, 15, 30, 60 min) by adding equal volume of ice-cold acetonitrile. The samples were stored at −80° C. until LC/MS/MS assays.
(§2) The concentrations of compounds in the incubation mixtures of human or rat liver microsomes were determined by a LC/MS/MS method. The ranges of the linearity in the concentration range were determined for each tested compounds.
(§3) A parallel incubation was performed using denatured microsomes as the negative control, and reactions were terminated at various time points (0, 15, 60 min) after incubation at 37° C.
(§4) Dextromethorphan (70 μM) was selected as the positive control, and reactions were terminated at various time points (0, 5, 10, 15, 30, 60 min) after incubation at 37° C. Both positive and negative control samples were included in each assay to ensure the integrity of the microsomal incubation system.
(§5) The concentrations of compounds in human or rat liver microsome incubations were plotted as a percentage of the relevant zero time point control for each reaction. The in vivo CLint were extrapolated (ref.: Naritomi, Y.; Terashita, S.; Kimura, S.; Suzuki, A.; Kagayama, A.; and Sugiyama, Y.; Prediction of human hepatic clearance from in vivo animal experiments and in vitro metabolic studies with liver microsomes from animals and humans. Drug Metab. Dispos., 2001, 29: 1316-1324).

[3] = Compound stability in human liver microsomes; assay type: in vitro ADME; conditions: for half-life at 5 μM: compound 5 μM, NADPH 1.0 mM, 37° C.; for CLint scaled at 5 μM: in vivo CLint extrapolated
Method: as §1, §2, §3, §4, §5

[4] = pH 7.4, Rat liver microsomes 0.5 mg protein/mL
[5] = pH 7.4, Human liver microsomes 0.5 mg protein/mL
[6] = rat, liver microsomes, pH 7.4, Rat liver microsomes 0.5 mg protein/mL
[7] = rat, liver microsomes, pH 7.4, Rat liver microsomes
[8] = human, liver microsomes, pH 7.4, Human liver microsomes 0.5 mg protein/mL
[9] = human, liver microsomes, pH 7.4, Human liver microsomes

SMILES | Clearance (CL) after iv dosing [1] | F [1] | AUC(0-t) [1] | half-life [1] | Vd [1] | IC50 (JAK1 (h)) | half-life at 5 μM [2, 4] | CLint scaled at 5 μM ([2]; pH 7.4, Rat liver microsomes) | half-life at 5 μM [3, 5] | CLint scaled at 5 μM ([3]; pH 7.4, Human liver microsomes) | half-life at 5 μM [2, 6] | CLint scaled at 5 μM [2, 7] | half-life at 5 μM [3, 8] | CLint scaled at 5 μM [3, 9]
Cn1cc(Nc2ncc(Cl)c(NC3CN(C(=O)CC#N)CC34CCCC4)n2)cn1 (centres unmarked) [Ex. 18, 3-(4-((5-chloro-2-((1-methyl-1H-pyrazol-4-yl)amino)pyrimidin-4-yl)amino)-2-azaspiro[4.4]nonan-2-yl)-3-oxopropanenitrile] | 45.8 mL/min/kg | 55.9% | 731 ng·h/mL | 136 min | 4.32 L/kg | 7 nM |  |  |  |  |  |  |  | 
N#CCC(=O)N1CC2CC(Nc3nc(Nc4cnn(CCO)c4)ncc3Cl)CC2C1 (centres unmarked) [Ex. 44, 3-(5-((5-chloro-2-((1-(2-hydroxyethyl)-1H-pyrazol-4-yl)amino)pyrimidin-4-yl)amino)hexahydrocyclopenta[c]pyrrol-2(1H)-yl)-3-oxopropanenitrile] | 49.3 mL/min/kg | 12.0% | 343 ng·h/mL | 33 min | 1.09 L/kg | 57 nM | 398 min | 6.24 mL/min/kg | 243 min | 7.15 mL/min/kg |  |  |  | 
N#CCC(=O)N1CC2CC(Nc3nc(Nc4cnn(CC5CC5)c4)ncc3Cl)CC2C1 (centres unmarked) [Ex. 46, 3-(5-((5-chloro-2-((1-(cyclopropylmethyl)-1H-pyrazol-4-yl)amino)pyrimidin-4-yl)amino)hexahydrocyclopenta[c]pyrrol-2(1H)-yl)-3-oxopropanenitrile] | 68.8 mL/min/kg | 26.0% | 244 ng·h/mL | 28.8 min | 1.53 L/kg | 0.5 nM | 20.6 min | 121 mL/min/kg | 39.3 min | 44.2 mL/min/kg |  |  |  | 
N#CCC(=O)N1CCC2(CCC(Nc3nc(Nc4cnn(CC5CC5)c4)ncc3Cl)CC2)CC1 [Ex. 48, 3-(9-((5-chloro-2-((1-(cyclopropylmethyl)-1H-pyrazol-4-yl)amino)pyrimidin-4-yl)amino)-3-azaspiro[5.5]undecan-3-yl)-3-oxopropanenitrile] | 66.2 mL/min/kg | 13.6% | 252 ng·h/mL | 43.8 min | 3.41 L/kg | 0.4 nM |  |  |  |  | 24.3 min | 102 mL/min/kg | 47.6 min | 36.5 mL/min/kg
N#CCC(=O)N1CCC2(CCC(Nc3nc(Nc4cnn(CCO)c4)ncc3Cl)CC2)CC1 [Ex. 50, 3-(9-((5-chloro-2-((1-(2-hydroxyethyl)-1H-pyrazol-4-yl)amino)pyrimidin-4-yl)amino)-3-azaspiro[5.5]undecan-3-yl)-3-oxopropanenitrile] | 43.2 mL/min/kg | 17.3% | 384 ng·h/mL | 59.4 min | 1.93 L/kg | 14 nM |  |  |  |  | 308 min | 8.07 mL/min/kg | 537 min | 3.24 mL/min/kg
Cn1nc(C2CC2)cc1Nc1ncc(Cl)c(NC2CC3CN(C(=O)CC#N)CC3C2)n1 (centres unmarked) [Ex. 56, 3-(5-((5-chloro-2-((3-cyclopropyl-1-methyl-1H-pyrazol-5-yl)amino)pyrimidin-4-yl)amino)hexahydrocyclopenta[c]pyrrol-2(1H)-yl)-3-oxopropanenitrile] | 36.3 mL/min/kg | 31.3% | 459 ng·h/mL | 32.4 min | 0.95 L/kg | 5 nM | 41.4 min | 60 mL/min/kg | 37.6 min | 46.2 mL/min/kg |  |  |  | 
Cc1cnc(Nc2cnn(C)c2)nc1NC1CC2CN(c3ccc(C#N)cn3)CC2C1 (centres unmarked) [Ex. 59, 6-(5-((5-methyl-2-((1-methyl-1H-pyrazol-4-yl)amino)pyrimidin-4-yl)amino)hexahydrocyclopenta[c]pyrrol-2(1H)-yl)nicotinonitrile] | 26.8 mL/min/kg | 36.9% | 648 ng·h/mL | 58.2 min | 1.76 L/kg | 1 nM |  |  |  |  |  |  |  | 
Cc1cnc(Nc2cnn(C)c2)nc1NC1CC2CN(C(=O)CC#N)CC2C1 (centres unmarked) [Ex. 60, 3-(5-((5-methyl-2-((1-methyl-1H-pyrazol-4-yl)amino)pyrimidin-4-yl)amino)hexahydrocyclopenta[c]pyrrol-2(1H)-yl)-3-oxopropanenitrile] |  |  |  |  |  | 5 nM | 240 min | 10.3 mL/min/kg | 244 min | 7.11 mL/min/kg |  |  |  | 
Cc1cnc(Nc2cnn(C)c2)nc1NC1CC2CN(S(C)(=O)=O)CC2C1 (centres unmarked) [Ex. 62, 5-methyl-N^2-(1-methyl-1H-pyrazol-4-yl)-N^4-(2-(methylsulfonyl)octahydrocyclopenta[c]pyrrol-5-yl)pyrimidine-2,4-diamine] | 82.8 mL/min/kg | 29.6% | 184 ng·h/mL | 48.6 min | 5.43 L/kg | 4 nM | 81.1 min | 30.6 mL/min/kg | 271 min | 6.41 mL/min/kg |  |  |  | 
